Consider two compounds from the NIST ThermoML archive (doi:10.1016/j.tca.2012.02.012).

± gives the expanded uncertainty stated by the source.

A short description of series [1]: xn = mol fraction of the nth substance listed. The following applies: 1850 K, 101 kPa, Liquid, Knudsen.
Series [2] is described as follows: excess molar enthalpy (molar enthalpy of mixing); xn = mol fraction of the nth substance listed. The following applies: 1850 K, 101 kPa, Liquid, Knudsen.

`[Fe]` [iron] + [Au]: the “excess molar Gibbs energy” value in series [1] (x1 = 0.5) was -0.761 ± 0.001 kJ/mol. In addition, the excess molar enthalpy in series [2] (x1 = 0.5) came to 7.35 ± 0.075 kJ/mol.
Consider `[Pd]` [palladium] + [Fe], for which, in series [1] (x2 = 0.5), the “excess molar Gibbs energy” value is -7.21 ± 0.001 kJ/mol. The excess molar enthalpy in series [2] (x2 = 0.5) was -25.1 ± 0.25 kJ/mol.
